The subject of test [1] is mouse model of rheumatoid arthritis. Particulars: in vivo; cited from earlier work.
Test [2] has as its system model of systemic lupus erythematosis. Particulars: in vivo; cited from earlier work.
The target of the next test is T1, PI3Kδ (Homo sapiens, UniProt O00329).
T1 construct: Full length p110 subunits of PI3k α, β and δ; polyHis (N); made in house; host or cells: Sf9 insect cells (baculovirus)
The experiment in a line: In vitro enzyme assay, residual ATP bioluminescence. Type of test: biochemical. The protocol: Full length p110 subunits of PI3k α, β and δ, N-terminally labeled with polyHis tag, were coexpressed with p85 with Baculo virus expression vectors in sf9 insect cells. P110/p85 heterodimers were purified by sequential Ni-NTA, Q-HP, Superdex-100 chromatography. Purified α, β and δ isozymes were stored at −20° C. in 20 mM Tris, pH 8, 0.2M NaCl, 50% glycerol, 5 mM DTT, 2 mM Na cholate. Truncated PI3Kγ, residues 114-1102, N-terminally labeled with polyHis tag, was expessed with Baculo virus in Hi5 insect cells. The γ isozyme was purified by sequential Ni-NTA, Superdex-200, Q-HP chromatography. The γ isozyme was stored frozen at −80° C. in NaH2PO4, pH 8, 0.2M NaCl, 1% ethylene glycol, 2 mM β-mercaptoethanol.
Assays were performed in 25 μL with the above final concentrations of components in white polyproplyene plates (Costar 3355). Phospatidyl inositol phosphoacceptor, PtdIns(4,5)P2 P4508, was from Echelon Biosciences. The ATPase activity of the alpha and gamma isozymes was not greatly stimulated by PtdIns(4,5)P2 under these conditions and was therefore omitted from the assay of these isozymes. Test compounds were dissolved in dimethyl sulfoxide and diluted with three-fold serial dilutions. The compound in DMSO (1 μL) was added per test well, and the inhibition relative to reactions containing no compound, with and without enzyme was determined. After assay incubation at room temperature, the reaction was stopped and residual ATP determined by addition of an equal volume of a commercial ATP bioluminescence kit (Perkin Elmer EasyLite) according to the manufacturer's instructions, and detected using a AnalystGT luminometer.

For another test, the system named is protein kinases. Particulars: cited from earlier work.
Test [3] relates to passive cutaneous anaphylaxis (PCA). Particulars: absence of functional delta (compound or p110δ D910A mice); cited from earlier work.
Test [4] concerns ovalbumin-induced airway inflammation. Particulars: cited from earlier work.
The target of the next test is T2, p110δ (Homo sapiens, UniProt O00329).
T2 sequence (O00329 1-1044): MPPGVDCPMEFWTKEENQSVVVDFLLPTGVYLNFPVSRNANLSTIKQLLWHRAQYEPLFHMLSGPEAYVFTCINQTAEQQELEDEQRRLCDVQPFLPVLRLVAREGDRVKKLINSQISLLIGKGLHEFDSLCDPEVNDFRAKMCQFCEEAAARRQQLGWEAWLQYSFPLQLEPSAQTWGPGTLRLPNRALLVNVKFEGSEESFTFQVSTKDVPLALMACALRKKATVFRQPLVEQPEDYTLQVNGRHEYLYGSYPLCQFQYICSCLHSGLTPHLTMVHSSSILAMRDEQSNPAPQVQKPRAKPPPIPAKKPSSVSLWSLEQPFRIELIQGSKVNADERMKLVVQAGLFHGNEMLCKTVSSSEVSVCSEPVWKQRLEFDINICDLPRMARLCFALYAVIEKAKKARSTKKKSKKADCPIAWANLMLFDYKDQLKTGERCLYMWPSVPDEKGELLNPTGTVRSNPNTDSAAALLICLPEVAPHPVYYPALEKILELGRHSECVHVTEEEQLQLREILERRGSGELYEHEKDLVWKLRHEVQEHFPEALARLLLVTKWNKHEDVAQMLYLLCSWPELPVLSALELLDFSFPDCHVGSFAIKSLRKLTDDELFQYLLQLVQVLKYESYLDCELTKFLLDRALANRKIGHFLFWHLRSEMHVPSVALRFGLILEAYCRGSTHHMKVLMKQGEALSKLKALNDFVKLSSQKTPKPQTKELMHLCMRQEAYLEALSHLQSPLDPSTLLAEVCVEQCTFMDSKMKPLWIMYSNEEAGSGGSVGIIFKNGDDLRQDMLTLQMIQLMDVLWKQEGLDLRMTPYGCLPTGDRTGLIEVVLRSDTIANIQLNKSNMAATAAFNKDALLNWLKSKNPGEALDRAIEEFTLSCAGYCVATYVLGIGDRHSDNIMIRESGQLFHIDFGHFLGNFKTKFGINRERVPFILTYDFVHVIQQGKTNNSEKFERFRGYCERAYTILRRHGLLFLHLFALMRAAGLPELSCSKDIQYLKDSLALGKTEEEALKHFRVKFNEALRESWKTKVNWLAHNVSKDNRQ
Particulars: cited from earlier work.

Like-named read-outs stand apart in the source and are kept apart here.

For orientation: IC50 means the midpoint of a concentration-inhibition curve.

T1 sequence (P27986 whole entry partner, one chain of several): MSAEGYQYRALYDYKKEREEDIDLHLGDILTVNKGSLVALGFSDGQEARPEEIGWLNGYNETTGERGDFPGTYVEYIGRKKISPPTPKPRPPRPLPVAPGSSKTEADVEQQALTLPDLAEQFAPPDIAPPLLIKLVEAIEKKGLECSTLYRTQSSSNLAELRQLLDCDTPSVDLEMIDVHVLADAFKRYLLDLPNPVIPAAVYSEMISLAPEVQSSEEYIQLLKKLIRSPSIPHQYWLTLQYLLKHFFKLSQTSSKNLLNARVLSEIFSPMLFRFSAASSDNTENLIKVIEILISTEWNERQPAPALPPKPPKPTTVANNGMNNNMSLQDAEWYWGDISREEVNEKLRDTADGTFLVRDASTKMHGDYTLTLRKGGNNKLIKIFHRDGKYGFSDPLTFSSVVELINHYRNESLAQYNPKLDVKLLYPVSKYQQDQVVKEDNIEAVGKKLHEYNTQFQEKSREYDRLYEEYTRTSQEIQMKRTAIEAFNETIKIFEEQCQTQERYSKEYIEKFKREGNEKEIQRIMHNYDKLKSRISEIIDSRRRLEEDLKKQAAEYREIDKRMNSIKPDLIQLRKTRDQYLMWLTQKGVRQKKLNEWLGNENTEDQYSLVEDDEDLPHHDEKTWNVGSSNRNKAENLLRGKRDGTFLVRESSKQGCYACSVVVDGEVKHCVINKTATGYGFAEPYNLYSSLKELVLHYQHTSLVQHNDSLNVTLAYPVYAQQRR

Regarding `O=C1NC(=O)/C(=C\c2ccc3nccnc3c2)S1` [AS 605240], the “efficacy in a mouse model of rheumatoid arthritis” value in test [1] is “efficacious”. The “onset of disease in a model of systemic lupus erythematosis” value in test [2] was “delay onset of disease”.
On to `Cc1cccc2cc(CNc3nc(N)ncc3Cl)c(-c3ccccc3Cl)nc12` [Example 1, 5-Chloro-N4-((2-(2-chlorophenyl)-8-methylquinolin-3-yl)methyl)pyrimidine-2,4-diamine], for which, at PI3Kδ (read-out: PI3Kδ IC50), the IC50 came out at 0.165 µM.
As to `Nc1cc(NCc2cc3cccc(Cl)c3nc2-c2ccccc2Cl)ncn1` [Example 2, N4-((8-Chloro-2-(2-chlorophenyl)quinolin-3-yl)-methyl)pyrimidine-4,6-diamine], the IC50 on PI3Kδ (read-out: PI3Kδ IC50) was 6.87 µM.
On to `Cc1cccc2cc(CNc3nc(N)ncc3C(F)(F)F)c(-c3ccccc3Cl)nc12` [Example 3, N4-((2-(2-chlorophenyl)-8-methylquinolin-3-yl)methyl)-5-(trifluoromethyl)pyrimidine-2,4-diamine], for which the IC50 on PI3Kδ (read-out: PI3Kδ IC50) is 0.127 µM.
In the case of `Cc1cccc2cc(CNc3ncc(C(F)(F)F)c(N)n3)c(-c3ccccc3Cl)nc12` [Example 4, N2-((2-(2-chlorophenyl)-8-methylquinolin-3-yl)methyl)-5-(trifluoromethyl)pyrimidine-2,4-diamine], on PI3Kδ (read-out: PI3Kδ IC50), the IC50 came out at 2.83 µM.
Turning to `NC(=O)c1cc(NS(=O)(=O)c2cc3cccc(Cl)c3nc2-c2ccccc2Cl)ccn1` [Example 7, 4-(8-chloro-2-(2-chlorophenyl)quinoline-3-sulfonamido)picolinamide], the IC50 at PI3Kδ (table after the in vitro enzyme assays, isoform and unit inferred, read-out: IC50) is more than 40 µM.
With `Cc1ccccc1-n1c(Cn2cnc3c(N)ncnc32)nc2cccc(C)c2c1=O` [IC87114], the “activity against any protein kinases tested” value in the test on protein kinases is listed as “no activity”. Besides, in test [3], the “passive cutaneous anaphylaxis (PCA)” value is “significantly reduced”. Also, in test [4], the “inflammation and disease in a murine model of asthma” value is “significantly ameliorate inflammation and disease”. For the same compound, on p110δ, the “inhibition of p110δ” value is recorded as “high nanomolar range (triple digit)”.

Source of the values: patent publication US8183258B2, “Heterocyclic compounds and their uses” (Amgen Inc., priority 2007, dated 2012).
